According to patent US6727232B2, “Nucleoside peptide antibiotics of AA-896” (Wyeth Holdings Corporation, priority 2001, dated 2004):
≈ marks a conversion by molar mass, not a printed value.

Columns and labels:
Experiment in all cases: Broth dilution MIC
Assay type in all cases: cell-based
[1] = system: M. morganii GC 4531; conditions: Morganella morganii, GC4531; M. morganii GC 4531; Mueller-Hinton broth, 18 hours at 35° C.; read-out: Antimicrobial Activity (MIC)
How it was run: (§1)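 Serial dilutions in Mueller-Hinton broth inoculated with bacterial suspension. MIC is the lowest concentration inhibiting growth after 18 hours at 35° C.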

[2] = system: E. coli GC 4560; conditions: Escherichia coli, GC4560, 18 h, read-out: Antimicrobial Activity (MIC)
How it was run: as §1

[3] = system: P. aeruginosa GC 4532; conditions: Pseudomonas aeruginosa, GC4532; P. aeruginosa GC 4532; Mueller-Hinton broth, 18 hours at 35° C.; read-out: Antimicrobial Activity (MIC)
How it was run: as §1

[4] = system: CNS GC 4537; conditions: CNS GC 4537; Mueller-Hinton broth, 18 hours at 35° C.; read-out: Antimicrobial Activity (MIC)
How it was run: as §1

[5] = system: CNS GC 4538; conditions: CNS GC 4538; Mueller-Hinton broth, 18 hours at 35° C.; read-out: Antimicrobial Activity (MIC)
How it was run: as §1

[6] = system: E. faecalis GC 4555; conditions: Enterococcus faecalis, GC4555; E. faecalis GC 4555; Mueller-Hinton broth, 18 hours at 35° C.; read-out: Antimicrobial Activity (MIC)
How it was run: as §1

[7] = system: P. rettgeri GC 4530; conditions: Providencia rettgeri, GC4530; P. rettgeri GC 4530; Mueller-Hinton broth, 18 hours at 35° C.; read-out: Antimicrobial Activity (MIC)
How it was run: as §1

[8] = system: E. coli GC 3226; conditions: Escherichia coli, GC3226; E. coli GC 3226; Mueller-Hinton broth, 18 hours at 35° C.; read-out: Antimicrobial Activity (MIC)
How it was run: as §1

[9] = system: E. cloacae GC 3783; conditions: Enterobacter cloacae, GC3783; E. cloacae GC 3783; Mueller-Hinton broth, 18 hours at 35° C.; read-out: Antimicrobial Activity (MIC)
How it was run: as §1

[10] = system: S. aureus GC 4536; conditions: Staphylococcus aureus, GC4536; S. aureus GC 4536; Mueller-Hinton broth, 18 hours at 35° C.; read-out: Antimicrobial Activity (MIC)
How it was run: as §1

[11] = system: S. marcescens GC 4077; conditions: Serratia marcescens, GC4077; S. marcescens GC 4077; Mueller-Hinton broth, 18 hours at 35° C.; read-out: Antimicrobial Activity (MIC)
How it was run: as §1

[12] = system: E. coli GC 4559; conditions: Escherichia coli, GC4559; E. coli GC 4559; Mueller-Hinton broth, 18 hours at 35° C.; read-out: Antimicrobial Activity (MIC)
How it was run: as §1

[13] = system: P. aeruginosa GC 2214; conditions: Pseudomonas aeruginosa, GC2214; P. aeruginosa GC 2214; Mueller-Hinton broth, 18 hours at 35° C.; read-out: Antimicrobial Activity (MIC)
How it was run: as §1

[14] = system: E. coli GC 2203; conditions: Escherichia coli, GC2203; E. coli GC 2203; Mueller-Hinton broth, 18 hours at 35° C.; read-out: Antimicrobial Activity (MIC)
How it was run: as §1

[15] = system: E. faecalis GC 2242; conditions: Enterococcus faecalis, GC2242; E. faecalis GC 2242; Mueller-Hinton broth, 18 hours at 35° C.; read-out: Antimicrobial Activity (MIC)
How it was run: as §1

[16] = system: CNS GC 4547; conditions: CNS GC 4547; Mueller-Hinton broth, 18 hours at 35° C.; read-out: Antimicrobial Activity (MIC)
How it was run: as §1

[17] = system: S. aureus GC 1131; conditions: Staphylococcus aureus, GC1131; S. aureus GC 1131; Mueller-Hinton broth, 18 hours at 35° C.; read-out: Antimicrobial Activity (MIC)
How it was run: as §1

[18] = system: K. pneumoniae GC 4534; conditions: Klebsiella pneumoniae, GC4534; K. pneumoniae GC 4534; Mueller-Hinton broth, 18 hours at 35° C.; read-out: Antimicrobial Activity (MIC)
How it was run: as §1

[19] = system: E. faecalis GC 842; conditions: Enterococcus faecalis, GC842; E. faecalis GC 842; Mueller-Hinton broth, 18 hours at 35° C.; read-out: Antimicrobial Activity (MIC)
How it was run: as §1

[20] = system: S. aureus GC 2216; conditions: Staphylococcus aureus, GC2216; S. aureus GC 2216; Mueller-Hinton broth, 18 hours at 35° C.; read-out: Antimicrobial Activity (MIC)
How it was run: as §1

CO[C@H]1C(O[C@H](C(C(=O)O)N(CCCNC(=O)C(NC(=O)C(NC(=O)NC(C(=O)O)C(C)C)C2CCNC(=N)N2)C(O)C(C)C)Cc2ccccc2)[C@H]2O[C@@H](n3ccc(=O)[nH]c3=O)[C@H](O)[C@@H]2O)O[C@H](CNCc2ccccc2)[C@@H]1O (stereo partly drawn) [Example 20B, 15-Benzyl-16-((R)-({(3R,4S,5R)-5-[(benzylamino)methyl]-4-hydroxy-3-methoxytetrahydro-2-furanyl}oxy){(2S,3S,4R,5R)-5-[2,4-dioxo-3,4-dihydro-1 (2H)-pyrimidinyl]-3,4-dihydroxytetrahydro-2-furanyl}methyl)-9-(1-hydroxy-2-methylpropyl)-6-(2-iminohexahydro-4-pyrimidinyl)-2-isopropyl-4,7,10-trioxo-3,5,8,11,15-pentaazaheptadecane-1,17-dioic Acid]
MIC [1]: > 32 µg/mL | MIC [2]: 32 µg/mL (≈ 28.4 µM) | MIC [3]: > 32 µg/mL | MIC [4]: > 32 µg/mL | MIC [5]: > 32 µg/mL | MIC [6]: > 32 µg/mL | MIC [7]: > 32 µg/mL | MIC [8]: > 32 µg/mL | MIC [9]: > 32 µg/mL | MIC [10]: > 32 µg/mL | MIC [11]: > 32 µg/mL | MIC [12]: > 32 µg/mL | MIC [13]: > 32 µg/mL | MIC [14]: > 32 µg/mL | MIC [15]: > 32 µg/mL | MIC [16]: > 32 µg/mL | MIC [17]: > 32 µg/mL | MIC [18]: > 32 µg/mL | MIC [19]: > 32 µg/mL | MIC [20]: > 32 µg/mL
